Assay results taken from patent US20110236504A1, “VERSATILE DISINFECTANT” (priority 2008, published 2011).
Read-outs that look alike come from different tables or passages of the source.

What was measured:
[1] = Investigation of aqueous L-ascorbic acid solution; type: cell-based
Source text: L-ascorbic acid (vitamin C) is essential for a living body and well fitted to body tissues. Addition of a small amount of L-ascorbic acid increases affinity to cellular tissues.

[2] = test system: pus mainly including antibiotic resistant MRSA; settings: Pus (MRSA) 4 × 10^9/g
[3] = test system: viable bacteria on skin surface; assay: Application on hand skin, swab method; type: in vivo; settings: for The number of viable bacteria on skin surface, relative value: before application = 100
Description: The disinfectant prepared in Preparation Example 3 was applied. Immediately after that, an area of 10 cm^2 was wiped with sterile gauze that was immersed into sterile physiological saline. Then, the number of bacteria was counted (Swab method). Next, different areas each having an area of 10 cm^2 were wiped in the applied area after 15 minutes, after 30 minutes, and after 60 minutes, and the viability of bacteria on the skin was determined. As controls, tap water and 70% ethanol were used. The number of bacteria before the application of disinfectants is regarded as 100 and relative values are shown.

[4] = test system: spores of Bacillus species; assay: Spore decay time and decay rate in dried soil, aerobic culture; type: cell-based; settings: for Spore decay rate, Spores of Bacillus species: 1 g dried soil in 10 ml, aerobic culture
Description: (§1) Sands in a sandbox in a park and riverside soil were collected and mixed. The mixture was dried with heated air at 80 to 90° C. for 6 hours. Then, 1 g of the dried mixture was added into water and immediately filtered with a filter. A part of the filtrate was applied onto a glass slide, and spores were stained in a common procedure. The number of stained spores was counted and the number of spores contained in 1 g of soil was determined. Simultaneously, the spores were aerobically (Bacillus species proliferated) and anaerobically (Clostridium species proliferated) cultured, and each ratio was determined.
(§2) Then, into 10 ml of the sample disinfectant, 1 g of the dried soil was added. Some of the mixture was collected with time, and cultured aerobically and anaerobically. The number of growing colonies was counted to determine the decay rate of the spores.

[5] = test system: intestinal bacteria in feces; assay: Sterilization effect on specimen: feces; settings: for The number of viable bacteria in specimen: Feces 1.5 × 10^11/g
[6] = test system: viable bacteria in sputum; assay: Sterilization effect on specimen: sputum; settings: Sputum 2 × 10^9/g
[7] = test system: pus mainly including antibiotic resistant Pseudomonas aeruginosa (MDRP); settings: Pus (MDRP) 5 × 10^9/g
[8] = test system: spores of Clostridium species; assay: Spore decay time and decay rate in dried soil, anaerobic culture; type: cell-based; settings: for Spore decay rate, Spores of Clostridium species: 1 g dried soil in 10 ml, anaerobic culture
Description: as §1, §2

SMILES: O=C1O[C@H]([C@@H](O)CO)C(O)=C1O [L-ascorbic acid]
- antimicrobial activity of aqueous solution itself [1]: almost no antimicrobial activity

SMILES: CCO [70% Ethanol, ethanol]
- The number of viable bacteria in specimen ([2]; 5 min after addition): 5e+07 g⁻¹
- The number of viable bacteria in specimen ([2]; 15 min after addition): 200000 g⁻¹
- The number of viable bacteria in specimen ([2]; 30 min after addition): 80000 g⁻¹
- The number of viable bacteria in specimen ([2]; 60 min after addition): 50000 g⁻¹
- number of bacteria on skin relative to before application ([3]; after 60 minutes): 45%
- The number of viable bacteria on skin surface, relative value ([3]; after 15 min): 12
- The number of viable bacteria on skin surface, relative value ([3]; after 30 min): 20
- The number of viable bacteria on skin surface, relative value ([3]; after 60 min): 45
- The number of viable bacteria on skin surface, relative value ([3]; immediately after): 0
- The number of viable bacteria on skin surface, relative value ([3]; immediately after, listed as 70% ethanol): no bacteria was observed
- effect on the spores [4]: no effect
- Spore decay rate, Spores of Bacillus species ([4]; 1 min contact): 0%
- Spore decay rate, Spores of Bacillus species ([4]; 5 min contact): 0%
- Spore decay rate, Spores of Bacillus species ([4]; 10 min contact): 0%
- Spore decay rate, Spores of Bacillus species ([4]; 30 min contact): 0%
- Spore decay rate, Spores of Bacillus species ([4]; 60 min contact): 0%
- Spore decay rate, Spores of Bacillus species ([4]; 120 min contact): 0%
- The number of viable bacteria in specimen ([5]; 5 min after addition): 5e+06 g⁻¹
- The number of viable bacteria in specimen ([5]; 15 min after addition): 3000 g⁻¹
- The number of viable bacteria in specimen ([5]; 30 min after addition): 4e+10 g⁻¹
- The number of viable bacteria in specimen ([5]; 60 min after addition): 4e+16 g⁻¹
- effect on bacteria in feces ([5]; feces): only slightly decreased
- The number of viable bacteria in specimen ([6]; 5 min after addition): 1e+08 g⁻¹
- The number of viable bacteria in specimen ([6]; 15 min after addition): 2e+07 g⁻¹
- The number of viable bacteria in specimen ([6]; 30 min after addition): 6e+06 g⁻¹
- The number of viable bacteria in specimen ([6]; 60 min after addition): 5e+06 g⁻¹
- The number of viable bacteria in specimen ([6]; 60 min after addition, listed as 70% ethanol): 5e+06 g⁻¹
- The number of viable bacteria in specimen ([7]; 5 min after addition): 7e+07 g⁻¹
- The number of viable bacteria in specimen ([7]; 15 min after addition): 500000 g⁻¹
- The number of viable bacteria in specimen ([7]; 30 min after addition): 10000 g⁻¹
- The number of viable bacteria in specimen ([7]; 60 min after addition): 10000 g⁻¹
- effect on the spores [8]: no effect
- Spore decay rate, Spores of Clostridium species ([8]; 1 min contact): 0%
- Spore decay rate, Spores of Clostridium species ([8]; 5 min contact): 0%
- Spore decay rate, Spores of Clostridium species ([8]; 10 min contact): 0%
- Spore decay rate, Spores of Clostridium species ([8]; 30 min contact): 0%
- Spore decay rate, Spores of Clostridium species ([8]; 60 min contact): 0%
- Spore decay rate, Spores of Clostridium species ([8]; 120 min contact): 0%
